Molecules are shown by their SMILES.

This data set is described as follows: Evaluation of stability in liver microsome. As to conditions: mouse liver microsome, 1 μM, 37° C. for 30 minutes.

Take `COCc1ccc(NC(=O)c2c(C#CC3(O)CCCC3)n(C3(C)CC3)c3ncnc(N)c23)cc1` [Example 131, 4-amino-6-((1-hydroxycyclopentyl)ethynyl)-N-(4-(methoxymethyl)phenyl)-7-(1-methylcyclopropyl)-7H-pyrrolo[2,3-d]pyrimidine-5-carboxamide]: the “Remaining (%)” value is 55%.
As to `C=Cc1c(C(=O)Nc2ccc(COC)cc2)c2c(N)ncnc2n1C1(C)CC1` [Example 65, 4-amino-N-(4-(methoxymethyl)phenyl)-7-(1-methylcyclopropyl)-6-vinyl-7H-pyrrolo[2,3-d]pyrimidine-5-carboxamide], the “Remaining (%)” value was 79%.
With `COCc1ccc(NC(=O)c2c(C#Cc3cnn(C)c3C)n(C3(C)CC3)c3ncnc(N)c23)cc1` [Example 182, 4-amino-6-((1,5-dimethyl-1H-pyrazol-4-yl)ethynyl)-N-(4-(methoxymethyl)phenyl)-7-(1-methylcyclopropyl)-7H-pyrrolo[2,3-d]pyrimidine-5-carboxamide] the figure was 61%; with `COCc1ccc(NC(=O)c2c(-c3cccnc3)n(C3(C)CC3)c3ncnc(N)c23)cc1` [Example 61, 4-amino-N-(4-(methoxymethyl)phenyl)-7-(1-methylcyclopropyl)-6-(pyridin-3-yl)-7H-pyrrolo[2,3-d]pyrimidine-5-carboxamide], 81%; with `COCc1ccc(NC(=O)c2c(C#Cc3cnc4[nH]ccc4c3)n(C3(C)CC3)c3ncnc(N)c23)cc1` [Example 128, 6-((1H-pyrrolo[2,3-b]pyridin-5-yl)ethynyl)-4-amino-N-(4-(methoxymethyl)phenyl)-7-(1-methylcyclopropyl)-7H-pyrrolo[2,3-d]pyrimidine-5-carboxamide], 82%.
With `[2H]C([2H])([2H])OCc1ccc(NC(=O)c2cn(C(C)(C)C)c3ncnc(N)c23)cc1` [Example 35, 4-amino-7-(tert-butyl)-N-(4-((methoxy-d3)-methyl)phenyl)-7H-pyrrolo[2,3-d]pyrimidine-5-carboxamide] the figure was 58%; with `COCc1ccc(NC(=O)c2c(C3=CCOCC3)n(C3(C)CC3)c3ncnc(N)c23)cc1` [Example 203, 4-amino-6-(3,6-dihydro-2H-pyran-4-yl)-N-(4-(methoxymethyl)phenyl)-7-(1-methylcyclopropyl)-7H-pyrrolo[2,3-d]pyrimidine-5-carboxamide], 68%; with `COCc1ccc(NC(=O)c2c(/C=C/CO)n(C3(C)CC3)c3ncnc(N)c23)cc1` [Example 109, (E)-4-amino-6-(3-hydroxyprop-1-en-1-yl)-N-(4-(methoxymethyl)phenyl)-7-(1-methylcyclopropyl)-7H-pyrrolo[2,3-d]pyrimidine-5-carboxamide], 68%.
Turning to `COCc1ccc(NC(=O)c2c(C#CCN3CCCCC3)n(C3(C)CC3)c3ncnc(N)c23)cc1` [Example 105, 4-amino-N-[4-(methoxymethyl)phenyl]-7-(1-methylcyclopropyl)-6-(3-(piperidin-1-yl)prop-1-yn-1-yl)-7H-pyrrolo[2,3-d]pyrimidine-5-carboxamide], the “Remaining (%)” value is given as 52%.
The result for `COCc1ccc(NC(=O)c2c(-c3ccc(CO)nc3)n(C3(C)CC3)c3ncnc(N)c23)cc1` [Example 179, 4-amino-6-(6-(hydroxymethyl)pyridin-3-yl)-N-(4-(methoxymethyl)phenyl)-7-(1-methylcyclopropyl)-7H-pyrrolo[2,3-d]pyrimidine-5-carboxamide] reads 85%.
With `COCc1ccc(NC(=O)c2c(C#CCC3(O)CCOCC3)n(C3(C)CC3)c3ncnc(N)c23)cc1` [Example 143, 4-amino-6-(3-(4-hydroxytetrahydro-2H-pyran-4-yl)prop-1-yn-1-yl)-N-(4-(methoxymethyl)phenyl)-7-(1-methylcyclopropyl)-7H-pyrrolo[2,3-d]pyrimidine-5-carboxamide] the figure was 68%; with `COCc1ccc(NC(=O)c2c(C#CCCN3CCOCC3)n(C3(C)CC3)c3ncnc(N)c23)cc1` [Example 187, 4-amino-N-(4-(methoxymethyl)phenyl)-7-(1-methylcyclopropyl)-6-(4-morpholinobut-1-yn-1-yl)-7H-pyrrolo[2,3-d]pyrimidine-5-carboxamide], 68%; with `COCc1ccc(NC(=O)c2c(-c3cnn(C)c3)n(C3(C)CC3)c3ncnc(N)c23)cc1` [Example 150, 4-amino-N-(4-(methoxymethyl)phenyl)-6-(1-methyl-1H-pyrazol-4-yl)-7-(1-methylcyclopropyl)-7H-pyrrolo[2,3-d]pyrimidine-5-carboxamide], 78%.
With `COCc1ccc(NC(=O)c2c(-c3cn[nH]c3)n(C3(C)CC3)c3ncnc(N)c23)cc1` [Example 167, 4-amino-N-(4-(methoxymethyl)phenyl)-7-(1-methylcyclopropyl)-6-(1H-pyrazol-4-yl)-7H-pyrrolo[2,3-d]pyrimidine-5-carboxamide] the figure was 80%; with `COCc1ccc(NC(=O)c2cn(C(C)(C)CF)c3ncnc(N)c23)cc1` [Example 26, 4-amino-7-(1-fluoro-2-methylpropan-2-yl)-N-(4-(methoxymethyl)phenyl)-7H-pyrrolo[2,3-d]pyrimidine-5-carboxamide], 60%; with `COCc1ccc(NC(=O)c2c(C(C)=O)n(C3(C)CC3)c3ncnc(N)c23)cc1` [Example 64, 6-acetyl-4-amino-N-(4-(methoxymethyl)phenyl)-7-(1-methylcyclopropyl)-7H-pyrrolo[2,3-d]pyrimidine-5-carboxamide], 89%.
Turning to `COCc1ccc(NC(=O)c2c(C#Cc3ccccc3OC)n(C3(C)CC3)c3ncnc(N)c23)cc1` [Example 113, 4-amino-N-(4-(methoxymethyl)phenyl)-6-((2-methoxyphenyl)ethynyl)-7-(1-methylcyclopropyl)-7H-pyrrolo[2,3-d]pyrimidine-5-carboxamide], the “Remaining (%)” value came out at 79%.
The result for `COCc1ccc(NC(=O)c2c(C#CC(C)(C)N)n(C3(C)CC3)c3ncnc(N)c23)cc1` [Example 134, 4-amino-6-(3-amino-3-methylbut-1-yn-1-yl)-N-(4-(methoxymethyl)phenyl)-7-(1-methylcyclopropyl)-7H-pyrrolo[2,3-d]pyrimidine-5-carboxamide] reads 79%; that for `COCc1ccc(NC(=O)c2c(SC)n(C3(C)CC3)c3ncnc(N)c23)cc1` [Example 133, 4-amino-N-(4-methoxymethyl)phenyl-7-(1-methylcyclopropyl)-6-(methylthio)-7H-pyrrolo[2,3-d]pyrimidine-5-carboxamide], 70%; that for `COCc1ccc(NC(=O)c2c(C#Cc3cnn(C)c3)n(C3(C)CC3)c3ncnc(N)c23)cc1` [Example 90, 4-amino-N-[4-(methoxymethyl)phenyl]-6-((1-methyl-1H-pyrazol-4-yl)ethynyl)-7-(1-methylcyclopropyl)-7H-pyrrolo[2,3-d]pyrimidine-5-carboxamide], 67%.
With `COCc1ccc(NC(=O)c2c(C#Cc3ccn(C)n3)n(C3(C)CC3)c3ncnc(N)c23)cc1` [Example 92, 4-amino-N-(4-(methoxymethyl)phenyl)-6-((1-methyl-1H-pyrazol-3-yl)ethynyl)-7-(1-methylcyclopropyl)-7H-pyrrolo[2,3-d]pyrimidine-5-carboxamide] the figure was 67%.
Consider `COCc1ccc(NC(=O)c2cn(C(C)(C)C)c3ncnc(N)c23)cc1` [Example 2, 4-amino-7-(tert-butyl)-N-(4-(methoxymethyl)phenyl)-7H-pyrrolo[2,3-d]pyrimidine-5-carboxamide], for which the “Remaining (%)” value was 64%.
Turning to `COCc1ccc(NC(=O)c2cn(C(C)(C)CF)c3ncnc(N)c23)cc1F` [Example 41, 4-amino-7-(1-fluoro-2-methylpropan-2-yl)-N-(3-fluoro-4-(methoxymethyl)phenyl)-7H-pyrrolo[2,3-d]pyrimidine-5-carboxamide], the “Remaining (%)” value stood at 56%.
With `COCc1ccc(NC(=O)c2c(C#Cc3cncc(F)c3)n(C3(C)CC3)c3ncnc(N)c23)cc1` [Example 175, 4-amino-6-((5-fluoropyridin-3-yl)ethynyl)-N-(4-(methoxymethyl)phenyl)-7-(1-methylcyclopropyl)-7H-pyrrolo[2,3-d]pyrimidine-5-carboxamide] the figure was 66%; with `COCc1ccc(NC(=O)c2c(OC)n(C3(C)CC3)c3ncnc(N)c23)cc1` [Example 57, 4-amino-6-methoxy-N-[4-(methoxymethyl)phenyl]-7-(1-methylcyclopropyl)-7H-pyrrolo[2,3-d]pyrimidine-5-carboxamide], 86%; with `COCc1ccc(NC(=O)c2c(C#Cc3ccc(N)nc3)n(C3(C)CC3)c3ncnc(N)c23)cc1` [Example 155, 4-amino-6-((6-aminopyridin-3-yl)ethynyl)-N-(4-(methoxymethyl)phenyl)-7-(1-methylcyclopropyl)-7H-pyrrolo[2,3-d]pyrimidine-5-carboxamide], 64%.
With `COCc1ccc(NC(=O)c2c(C#Cc3cccs3)n(C3(C)CC3)c3ncnc(N)c23)cc1` [Example 119, 4-amino-N-(4-(methoxymethyl)phenyl)-7-(1-methylcyclopropyl)-6-(thiophen-2-ylethynyl)-7H-pyrrolo[2,3-d]pyrimidine-5-carboxamide] the figure was 70%.
With `COCc1ccc(NC(=O)c2cn(C3(C)CC3)c3ncnc(N)c23)cc1` [Example 36, 4-amino-N-(4-(methoxymethyl)phenyl)-7-(1-methylcyclopropyl)-7H-pyrrolo[2,3-d]pyrimidine-5-carboxamide] the figure was 73%.
For the molecule `COCc1ccc(NC(=O)c2c(C#Cc3cncn3C)n(C3(C)CC3)c3ncnc(N)c23)cc1` [Example 93, 4-amino-N-(4-(methoxymethyl)phenyl)-6-((1-methyl-1H-imidazol-5-yl)ethynyl)-7-(1-methylcyclopropyl)-7H-pyrrolo[2,3-d]pyrimidine-5-carboxamide], the “Remaining (%)” value is on record as 53%.
With `COCc1ccc(NC(=O)c2c(OCC(C)C)n(C3(C)CC3)c3ncnc(N)c23)cc1` [Example 99, 4-amino-6-isobutoxy-N-(4-(methoxymethyl)phenyl)-7-(1-methylcyclopropyl)-7H-pyrrolo[2,3-d]pyrimidine-5-carboxamide] the figure was 51%.

The values are drawn from US11046696B2, “Fused pyrimidine compound or salt thereof” (TAIHO PHARMACEUTICAL CO., LTD., priority 2016, dated 2021).
